Experimental data: patent US20080171706A1, “Anti-Adhesive Compounds to Prevent and Treat Bacterial Infections” (priority 2004, published 2008)

Target: T1, FimHtrF18 (Escherichia coli, UniProt P08191, N91S/S99N/V48A)
T1 construct: coding for the lectin domain of FimH (residues 1-158) with a C-terminal 6-histidine tag; made in house; host or cells: E. coli HB101 (lacking the fim operon), periplasmic extract, plasmid pPKL316
Experiment: biochemical
Assay type: binding, E. coli fecal (F18) strain
Protocol: To investigate if these variations reflect differences in sugar binding at the molecular level, the dissociation constants of a series of mannosides for the FimH lectin domain from a fecal (F18) and from a UPEC (Cl#4) strain were determined. […] For comparison, binding to FimHtrJ96 was also investigated. Both F18 and Cl#4 FimH lectin domains were cloned, expressed, and purified in the same way as FimHtrJ96 (Schembri et al., 2000). These two lectin domains differ from the lectin domain of FimHJ96 by substitutions Val27Ala, Asn70Ser and Ser78Asn. In addition, FimHCl#4 differs from the other two variants by a Gly73Glu substitution. […] Five different tri-mannosides corresponding to high-mannose substructures were synthesized, and their binding to FimHtrJ96, FimHtrF18 and FimHtrCl#4 measured using our [^3H]-mannose displacement assay (Table 3). Alpha-D-mannose binding was first directly measured for each of the FimH variants.
[^3H]alpha-D-mannose was obtained from Amersham. […] Syntheses of tri-mannosides was as reported earlier by Oscarson and co-workers (1993). Weighed amounts of tri-mannosides were dissolved in double distilled water to give stock solutions of 0.87 M man-(1,2)-man-(1,2)-man, 0.25 M man-(1,2)-man-(1,3)-man, 0.27 M man-(1,2)-man-(1,6)-man, 0.30 M man-(1,3)-man-(1,6)-man, 0.13 M man-(1,6)-man-(1,6)-man. Similarly, alkyl mannosides were dissolved in double distilled water to give stock solutions of 100 mM methyl mannoside, 59.8 mM ethyl mannoside, 45.9 mM propyl mannoside, 51.9 mM butyl mannoside, 17.3 mM pentyl mannoside, 20.8 mM hexyl mannoside, 15.3 mM heptyl mannoside, 15.2 mM octyl mannoside. pNPalphaMan and MeUmbalphaMan (6 mg each) were dissolved in 20 μl DMSO and diluted to 20 mM using double distilled water. Binding experiments were performed using six different concentrations of [^3H]-alpha-D-mannose (final concentrations 43.5 μM, 29.0 μM, 19.3 μM, 12.9 μM, 8.6 μM, 5.7 μM). FimHtrJ96 obtained by growing bacteria in minimal medium was used in all binding experiments. 180 μl protein at a concentration of about 500 nM was mixed with 20 μl of the radioactive ligand, and incubated at 37° C. for 20 min. To separate free ligand from bound, the mixture was rapidly filtrated through a Protran BA 85 Cellulose-nitrate filter (Schleicher & Schuell, Dassel, Germany), and washed once with 1 ml of ice-cold 1× PBS (phosphate buffered saline). Filter-bound radioactivity was measured by scintillation spectrometry within 24 hours. The displacement experiments were performed using six different concentrations (final concentrations in the range 0.0˜43.5 μM) of the inhibitor, in the presence of 43.5 μM [^3H]-alpha-D-mannose. 20 μl radioactive ligand, 20 μl inhibitor at decreasing concentrations, and 160 μl protein (500 nM) were mixed, and the experiments performed as above. All experiments were performed in duplicates. For determination of KD for α-D-mannose, a hyperbolic curve (y=P1x/(P2+x), where P2=KD) was fitted to the data. For the displacement experiments, the curve y=P1/(P2+x), where P2 is the concentration of the inhibitor displacing 50% of the labelled ligand, [I]0.5 was used instead. To calculate the inhibitor dissociation constant (KI) the Cheng & Prusoff equation (KI=[I]0.5/([L]/KL+1); KL is the constant of dissociation for the ligand) (Cheng and Prusoff, 1973), was used when both the concentration of the radioactive ligand (L) and the displacing agent (I) are in excess over the protein (LT>>PT;IT>>PT, T indicates total concentration). […] A plot of IT/((1−Y)*(LT/KL)−Y) against 1/Y gives a straight line with a slope of KI.

T1 sequence (P08191 22-179 V48A/N91S/S99N): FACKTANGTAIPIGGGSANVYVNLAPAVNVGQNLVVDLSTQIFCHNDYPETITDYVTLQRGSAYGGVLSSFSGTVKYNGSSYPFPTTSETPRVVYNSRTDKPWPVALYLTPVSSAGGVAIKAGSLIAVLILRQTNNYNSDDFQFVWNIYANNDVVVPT

SMILES: OC[C@H]1O[C@H](O)[C@@H](O)[C@@H](O)[C@@H]1O [Mannose, α-D-mannose]
- Kd (KD F18, Table 3, [3H]-mannose displacement assay (mannose measured directly)): 9.8 µM
- Kd (KD, mannose binding measured directly, FimHtrF18): 10 µM
- ΔG° F18 (Table 3, calculated from KD): -29.7 kJ/mol
